Read-outs that look alike come from different tables or passages of the source.

The target of data set [1] is T1, Human brain NOS (Homo sapiens, UniProt P29475).
T1 construct: Purification of NOS from human brain; from tissue; host or cells: frozen human brain
In words: Human brain NOS enzyme activity assay. In kind it is biochemical. To be noted: for Ki: isolated enzyme from human brain.
Description: The mixture was centrifuged at 13,000 g for 1 hour and the supernatant was removed (about 2050 ml). […] The precipitate was pelleted at 13,000 g for 30 minutes and the pellet was resuspended in −400 mls of buffer A with 4 μM tetrahydrobiopterin, 1 μm FAD (Sigma), 1 μM FMN (Sigma). The solution was centrifuged at 41,000 g for 60 minutes. The supernatant was removed, frozen by pouring into liquid nitrogen, and stored overnight at −70° C. The mixture was thawed and passed through a 2′,5′ ADP-agarose column (0.4 g swelled in buffer A) at 4 ml/min. The column was washed with 100 ml buffer A, 200 ml buffer A with 500 mM NaCl, 100 ml Buffer A, then 30 ml buffer A with 5 mM NADPH. […] To the enzyme was added tetrahydrobiopterin to 10 μM, FAD and FMN to 1 μM, and tween to 0.1%. This solution was concentrated by centriprep-30 to a volume of approximately 500 μl. Human NOS was prepared completely analogously except the calmodulin-agarose column was not used.

The target in data set [2] is T2, inducible human NOS (Homo sapiens, UniProt P35228).
T2 construct: Purification of NOS cytokine-induced human colorectal adenocarcinoma DLD-1 cells; endogenous in cells; host or cells: DLD-1 (ATCC No. CCL 221), induced with IFN-gamma, IL-6, TNF and IL-1beta
Description: Assay for inducible human NOS (citrulline formation), enzyme from cytokine-induced DLD-1 cells. It counts as biochemical.
Description: (§1) NOS was assayed for the formation of citrulline following the procedure of Schmidt et al (PNAS 88 365-369, 1991) with these modifications: 20 mM Hepes, pH 7.4, 10 μg/ml calmodulin, 2.5 mM CaCl2 2.5 mM DTT, 125 μM NADPH 10 μM H4 Biopterin, 0.5 mg/ml BSA, and 1 μM L-[14C] arginine (New England Nuclear). Linearity of NOS-catalyzed rate was confirmed prior to kinetic studies that used single tine point determination of rate.
DLD-1 (ATCC No. CCL 221) were grown at 37° C., 5% CO2 in RPMI 1640 medium supplemented with L-glutamin, penicillin, streptomycin, and 10% heat-inactivated fetal bovine serum. Cells were grown to confluency and then the following cocktail of cytokines were added: 100 units/ml interferon-gamma, 200 units/ml interleukin-6, 10 ng/ml tumor necrosis factor, and 0.5 ng/mil interleukin-1β. At 10-24 hr post-induction, cells were harvested by scraping and washed with phosphate-buffered saline. Pelleted cells were stored at −70° C. Purification of the induced NOS was performed at 4° C. Crude extract was prepared by three cycles of freeze/thawing cells in TDGB (20 mM tris pH 7.5, 10% glycerol, 1 mM DTT, 2 μM tetrahydrobiopterin). Extract was applied directly onto a column of 2′,5′ ADP sepharse (Pharmacia). Resin was sequentially washed with TDGB, 0.5 M NaCl in TDGB, TDGB. NOS was eluted with 2 mM NADPH in TDGB. BSA was immediately added to give a final concentration of 1 mg/ml. NOS could be quick frozen and stored at −70° C. without loss in activity for at least 2 months.
Assay for inducible human NOS.
The formation of citrulline was assayed as described above except that 10 μM FAD was included and calmodulin and CaCl2 were excluded from the assay mix.

In data set [3] the target is T3, human placental NOS (Homo sapiens, UniProt P29474).
T3 construct: Purification of NOS from human placenta; from tissue; host or cells: fresh human placenta
In words: Assay for human placental NOS (citrulline formation). It counts as biochemical.
Description: as §1

The mark [4] stands for this setting: isolated enzyme from DLD-1 cells, read-out: Human Inducible Ki/μM.
[5] abbreviates: isolated enzyme from human placenta, read-out: Human Placental Ki/μM.

T2 sequence (P35228 whole entry): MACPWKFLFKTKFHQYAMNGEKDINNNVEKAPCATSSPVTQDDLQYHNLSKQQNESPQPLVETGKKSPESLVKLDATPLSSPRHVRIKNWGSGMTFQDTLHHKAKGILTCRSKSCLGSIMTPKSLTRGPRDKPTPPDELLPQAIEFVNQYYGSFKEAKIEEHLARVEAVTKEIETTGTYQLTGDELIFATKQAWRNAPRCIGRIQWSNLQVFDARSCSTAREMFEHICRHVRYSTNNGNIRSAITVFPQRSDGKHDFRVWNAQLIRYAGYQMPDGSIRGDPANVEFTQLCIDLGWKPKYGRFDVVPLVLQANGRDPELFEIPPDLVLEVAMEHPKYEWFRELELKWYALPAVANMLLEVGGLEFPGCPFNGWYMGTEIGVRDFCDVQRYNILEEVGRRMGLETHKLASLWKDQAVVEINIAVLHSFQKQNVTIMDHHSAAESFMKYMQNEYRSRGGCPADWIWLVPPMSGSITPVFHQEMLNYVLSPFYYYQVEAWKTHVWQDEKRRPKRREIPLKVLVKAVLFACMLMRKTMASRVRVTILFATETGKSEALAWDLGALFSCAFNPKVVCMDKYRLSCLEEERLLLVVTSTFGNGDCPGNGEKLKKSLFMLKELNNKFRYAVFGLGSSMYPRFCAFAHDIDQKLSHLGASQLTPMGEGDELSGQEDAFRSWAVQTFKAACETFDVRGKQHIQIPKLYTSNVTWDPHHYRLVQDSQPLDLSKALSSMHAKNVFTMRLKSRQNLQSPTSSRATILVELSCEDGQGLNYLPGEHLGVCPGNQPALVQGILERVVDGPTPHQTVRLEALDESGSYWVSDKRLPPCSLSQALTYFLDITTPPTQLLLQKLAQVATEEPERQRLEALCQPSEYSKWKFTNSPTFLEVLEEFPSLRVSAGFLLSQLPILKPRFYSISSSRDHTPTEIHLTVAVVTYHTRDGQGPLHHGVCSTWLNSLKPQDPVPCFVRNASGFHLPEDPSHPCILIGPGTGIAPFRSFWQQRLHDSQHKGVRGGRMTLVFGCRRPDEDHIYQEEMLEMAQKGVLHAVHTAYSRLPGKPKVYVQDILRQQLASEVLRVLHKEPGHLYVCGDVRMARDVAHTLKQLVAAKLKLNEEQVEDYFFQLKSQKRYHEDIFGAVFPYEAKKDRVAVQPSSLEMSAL
T3 sequence (P29474 2-1203): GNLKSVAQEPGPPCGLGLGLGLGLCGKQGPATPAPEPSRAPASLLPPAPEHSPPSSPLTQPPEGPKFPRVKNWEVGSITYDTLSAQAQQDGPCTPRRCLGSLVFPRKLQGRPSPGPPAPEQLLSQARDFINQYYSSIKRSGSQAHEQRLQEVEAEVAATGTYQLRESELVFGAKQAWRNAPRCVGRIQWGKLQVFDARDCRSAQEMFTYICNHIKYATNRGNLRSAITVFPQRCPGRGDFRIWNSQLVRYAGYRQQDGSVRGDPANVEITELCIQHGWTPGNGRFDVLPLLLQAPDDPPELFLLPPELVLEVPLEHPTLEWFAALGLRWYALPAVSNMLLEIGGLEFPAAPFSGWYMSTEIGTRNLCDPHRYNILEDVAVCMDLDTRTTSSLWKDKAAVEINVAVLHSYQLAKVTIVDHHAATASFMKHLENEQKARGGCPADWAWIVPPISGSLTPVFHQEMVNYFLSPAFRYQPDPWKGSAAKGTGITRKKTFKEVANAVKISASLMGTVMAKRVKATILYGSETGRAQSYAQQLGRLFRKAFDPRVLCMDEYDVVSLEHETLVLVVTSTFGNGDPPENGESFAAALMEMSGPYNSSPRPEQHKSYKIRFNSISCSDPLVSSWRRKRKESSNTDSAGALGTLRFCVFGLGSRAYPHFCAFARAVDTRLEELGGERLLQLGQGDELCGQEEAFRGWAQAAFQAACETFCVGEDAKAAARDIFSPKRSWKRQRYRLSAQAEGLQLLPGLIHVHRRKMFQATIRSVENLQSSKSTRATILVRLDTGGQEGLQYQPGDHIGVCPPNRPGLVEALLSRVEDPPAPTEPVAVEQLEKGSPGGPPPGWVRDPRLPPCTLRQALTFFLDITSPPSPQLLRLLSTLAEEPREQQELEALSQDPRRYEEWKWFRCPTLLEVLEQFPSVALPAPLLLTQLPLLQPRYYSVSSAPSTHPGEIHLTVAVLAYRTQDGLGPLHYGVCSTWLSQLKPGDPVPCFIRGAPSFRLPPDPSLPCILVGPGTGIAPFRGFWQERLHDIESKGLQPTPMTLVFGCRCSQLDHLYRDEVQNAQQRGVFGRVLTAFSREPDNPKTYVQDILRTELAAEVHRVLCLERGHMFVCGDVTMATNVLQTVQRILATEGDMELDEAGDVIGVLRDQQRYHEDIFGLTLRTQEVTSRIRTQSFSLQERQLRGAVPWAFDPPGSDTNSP
T1 sequence (P29475 whole entry): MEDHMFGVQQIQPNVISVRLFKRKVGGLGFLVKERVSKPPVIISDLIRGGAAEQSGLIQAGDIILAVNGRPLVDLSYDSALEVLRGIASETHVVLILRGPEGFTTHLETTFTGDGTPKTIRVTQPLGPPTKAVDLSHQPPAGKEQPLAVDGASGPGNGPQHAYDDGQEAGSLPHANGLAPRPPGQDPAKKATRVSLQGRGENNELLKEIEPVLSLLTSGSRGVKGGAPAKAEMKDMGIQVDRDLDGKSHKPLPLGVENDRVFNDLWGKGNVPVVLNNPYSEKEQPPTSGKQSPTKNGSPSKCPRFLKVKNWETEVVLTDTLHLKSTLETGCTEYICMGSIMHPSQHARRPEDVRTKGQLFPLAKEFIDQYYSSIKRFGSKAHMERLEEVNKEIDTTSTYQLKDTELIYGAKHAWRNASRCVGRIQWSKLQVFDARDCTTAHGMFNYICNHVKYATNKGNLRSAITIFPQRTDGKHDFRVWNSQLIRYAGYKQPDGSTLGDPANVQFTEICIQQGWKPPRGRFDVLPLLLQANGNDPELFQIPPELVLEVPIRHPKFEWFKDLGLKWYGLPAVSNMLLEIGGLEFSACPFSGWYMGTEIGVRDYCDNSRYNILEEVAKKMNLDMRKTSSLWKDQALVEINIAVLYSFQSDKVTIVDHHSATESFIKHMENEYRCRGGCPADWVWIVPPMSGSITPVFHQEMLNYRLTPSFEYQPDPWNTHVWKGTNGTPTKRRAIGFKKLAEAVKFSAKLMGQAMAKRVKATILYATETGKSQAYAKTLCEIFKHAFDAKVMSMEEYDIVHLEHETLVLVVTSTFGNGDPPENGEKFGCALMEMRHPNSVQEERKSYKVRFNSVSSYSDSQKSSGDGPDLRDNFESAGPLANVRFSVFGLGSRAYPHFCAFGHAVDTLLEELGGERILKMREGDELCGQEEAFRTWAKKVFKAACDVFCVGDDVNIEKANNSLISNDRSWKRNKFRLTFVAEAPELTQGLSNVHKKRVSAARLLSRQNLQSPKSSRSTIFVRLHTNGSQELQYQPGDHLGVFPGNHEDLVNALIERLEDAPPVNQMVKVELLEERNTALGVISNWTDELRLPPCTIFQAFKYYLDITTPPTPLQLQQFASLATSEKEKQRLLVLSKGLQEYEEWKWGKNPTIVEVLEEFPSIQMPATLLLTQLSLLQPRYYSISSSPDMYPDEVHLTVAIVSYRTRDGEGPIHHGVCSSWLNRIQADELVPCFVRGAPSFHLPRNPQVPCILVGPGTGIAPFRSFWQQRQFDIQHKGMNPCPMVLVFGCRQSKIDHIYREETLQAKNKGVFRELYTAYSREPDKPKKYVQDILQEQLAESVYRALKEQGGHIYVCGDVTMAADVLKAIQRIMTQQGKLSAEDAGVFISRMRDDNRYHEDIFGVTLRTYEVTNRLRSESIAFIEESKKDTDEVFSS

`N=C(Nc1ccc(C(F)(F)F)cc1)SCc1ccccc1` [Example 2A, S-Benzyl-N-[4-(trifluoromethyl)phenyl]isothiourea]: the melting point (in general, the temperature of the solid-liquid transition) fell in the range of 71 to 72 °C. The inhibition (usually the relative decrease from the control value, in per cent) at 25 µM in data set [1] (@ 25 μM inhibitor, read-out: Human Brain, percent (inhibition) @ 25 μM) stood at 11%. In data set [2], the “Human Inducible, percent (inhibition), concentration not given” value is on record as 0%. In addition, in data set [3], the “Human Placental, percent (inhibition), concentration not given” value was 0%.

As for “N^6-(ethylthio)iminomethyl-D-lysine [Example 9J]”, the Ki was determined as 0.56 µM in data set [1], 7 µM in data set [2] (setting [4]) and 1.3 µM in data set [3] (setting [5]).

With `CCSC(=N)Nc1ccc(OCc2ccccc2)cc1` [Example 1B, S-ethyl-N-[4-(benzyloxy)phenyl]isothiourea], the Ki was determined as 0.21 ± 0.01 µM in data set [1], 6.6 µM in data set [2] (setting [4]) and 2.8 µM in data set [3] (setting [5]).

Take `CCSC(=N)Nc1ccc(Cl)c(C(F)(F)F)c1` [Example 2K, S-Ethyl-N-(4-chloro-3-(trifluoromethyl)phenyl)isothiourea]: the Ki was 4.2 µM in data set [1], 17 µM in data set [2] (setting [4]) and 8.2 µM in data set [3] (setting [5]).

With `CCSC(=N)Nc1ccc(C2CCCCC2)cc1` [Example 1H, S-ethyl-N-(4-cyclohexylphenyl)isothiourea], the Ki in data set [1] is 1.5 ± 0.07 µM; in data set [2] (setting [4]), 28 µM; in data set [3] (setting [5]) it was 14 µM.

In the case of `CCSC(=N)Nc1ccccc1Cl` [Example 2G], the Ki in data set [1] is 0.17 µM; in data set [2] (setting [4]) it was 2.9 µM; in data set [3] (setting [5]), 1.8 µM.

As to `CSC(=N)NCCC[C@H](N)C(=O)O` [Example 8], the Kd in data set [1] (Kd from association and dissociation rate constants for the slow onset of inhibition, read-out: Human Brain Ki/μM (footnote c: value is a Kd)) was 0.001 µM. In addition, the Ki in data set [2] (from steady state inhibited rate / control rate, assuming competitive inhibition with respect to arginine, read-out: Human Inducible Ki/μM (footnote a)) was determined as 0.034 µM; in data set [3] (from percent inhibition at three or more concentrations at a single time point, assuming competitive inhibition with respect to arginine, read-out: Human Placental Ki/μM (footnote b)) it was 0.07 µM.

As for `CC(C)CSC(=N)NCCC[C@H](N)C(=O)O` [Example 9E, N^5-(imino(2-methylpropylthio)methyl)-L-ornithine], the Ki amounted to 5.5 µM in data set [1], 5.3 µM in data set [2] (setting [4]) and 14 µM in data set [3] (setting [5]).

With `COC(=N)Nc1ccc(C(F)(F)F)cc1` [Example 3, O-Methyl-N-(4-(trifluoromethyl)phenyl)isourea], the melting point was 121 to 123 °C. The “Human Brain, percent (inhibition), concentration not given” value in data set [1] (concentration not given) was determined as 24%. Further, the “Human Inducible, percent (inhibition), concentration not given” value in data set [2] came to 4%. In addition, the “Human Placental, percent (inhibition), concentration not given” value in data set [3] is reported as 14%.

Turning to `CSC(=N)NCCCC[C@H](N)C(=O)O` [Example 9A, N^6-(imino(methylthio)methyl)L-lysine], the values for the Ki in data set [1], in data set [2] (setting [4]) and in data set [3] (setting [5]) were 0.09 µM, 1.7 µM and 4.1 µM, respectively.

The values are drawn from patent publication US20010034342A1, “Substituted urea and isothiourea derivatives as no synthase inhibitors” (priority 1993, published 2001).
